Source: patent US10517889B2, “Modulators of SMAD7 expression” (Ionis Pharmaceuticals, Inc., priority 2017, dated 2019)
Strand notation (5' to 3'): a small letter for the sugar, then the base; units joined by * are phosphorothioate-linked, units joined directly phosphodiester-linked; [ ] holds rarer units or linkages, { } end groups; capitals alone tell only the bases. k = constrained ethyl (cEt); [5mC] = 5-methylcytosine; d = 2'-deoxy (DNA)

Test system: human SMAD7 mRNA
Experiment: Antisense inhibition of human SMAD7 mRNA expression in Hep3B cells by 3-10-3 cEt gapmers, 10,000 nM, electroporation (Example 2)
Format: cell-based
Settings: Hep3B cells, 10,000 nM antisense oligonucleotide, electroporation, approximately 24 hours, RT-PCR primer probe set RTS5062, relative to untreated control cells
Method in brief: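 Hep3B cells (20,000 per well) were electroporated with 10,000 nM 16-mer 3-10-3 cEt gapmer (phosphorothioate, 5-methylcytosine). After about 24 h, SMAD7 mRNA was quantified by qRT-PCR with primer probe set RTS5062, normalised to RIBOGREEN total RNA, and expressed as percent inhibition versus untreated cells.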

| Substance | % Inhibition [%] |
| --- | --- |
| 798859 (k[5mC]*kG*kG*dA*d[5mC]*dT*dT*dG*dA*dT*dG*dA*dA*kG*kA*kT; antisense) [compound 798859] | 14 |
| 798825 (k[5mC]*kT*kG*dG*dA*d[5mC]*dA*d[5mC]*dA*dG*dT*dA*dG*kA*kG*k[5mC]; antisense) [compound 798825] | 24 |
| 799971 (kG*kT*kA*dA*dA*dA*d[5mC]*dT*dT*dG*d[5mC]*dT*dG*kA*kG*kA; antisense) [compound 799971] | 31 |

Same assay, conditions: Hep3B cells, electroporation with 10,000 nM antisense oligonucleotide, approximately 24 hours, RTS5062, percent inhibition of SMAD7 mRNA relative to untreated control cells

| Substance | % Inhibition [%] |
| --- | --- |
| 799707 (antisense kA*kA*kA*d[5mC]*dT*dT*dG*dT*dG*dG*dT*dA*dA*kA*kA*kT) [compound 799707] | 38 |
| 799847 (kT*kT*k[5mC]*d[5mC]*dA*d[5mC]*dT*dA*dT*dT*d[5mC]*dT*dA*kT*kG*kA; antisense) [compound 799847] | 30 |
| 799647 (antisense kA*k[5mC]*kA*dG*dA*dA*dA*d[5mC]*dT*d[5mC]*d[5mC]*dA*dG*kA*kT*kG) [compound 799647] | 0 |

Same assay, conditions: Hep3B cells, electroporation with 10,000 nM antisense oligonucleotide, approximately 24 hours, SMAD7 mRNA by RT-PCR (RTS5062), relative to untreated control cells

| Substance | % Inhibition [%] |
| --- | --- |
| 798916 (k[5mC]*kG*k[5mC]*dT*d[5mC]*dT*dG*dT*d[5mC]*d[5mC]*d[5mC]*d[5mC]*dT*k[5mC]*k[5mC]*kG; antisense) [compound 798916] | 13 |
| 830202 (antisense kT*k[5mC]*kT*dG*dA*dA*dG*dG*d[5mC]*dT*dA*d[5mC]*dA*k[5mC]*k[5mC]*kA) [compound 830202] | 50 |
| 798917 (kG*k[5mC]*kT*d[5mC]*dA*d[5mC]*dG*d[5mC]*dT*d[5mC]*dT*dG*dT*k[5mC]*k[5mC]*k[5mC]; antisense) [compound 798917] | 0 |
| 830074 (k[5mC]*kT*k[5mC]*dA*dG*dA*dT*d[5mC]*dA*dA*dA*dG*dG*kT*kA*kA; antisense) [compound 830074] | 43 |
| 798701 (antisense k[5mC]*kT*kT*d[5mC]*dT*d[5mC]*d[5mC]*d[5mC]*d[5mC]*dG*d[5mC]*dA*dG*k[5mC]*kT*k[5mC]) [compound 798701] | 23 |
| 799507 (antisense kA*k[5mC]*kT*d[5mC]*dA*dT*dT*dA*dG*dT*d[5mC]*d[5mC]*d[5mC]*kA*kT*kG) [compound 799507] | 34 |
| 800004 (kT*kT*kT*dT*dA*dA*dT*dT*dT*dG*dA*dA*dG*kG*k[5mC]*kG; antisense) [compound 800004] | 8 |
| 798846 (k[5mC]*kT*k[5mC]*d[5mC]*dG*d[5mC]*dA*d[5mC]*d[5mC]*dT*dT*d[5mC]*dT*kG*k[5mC]*kA; antisense) [compound 798846] | 40 |
| 798812 (k[5mC]*kT*k[5mC]*d[5mC]*dA*dG*dA*dA*dG*dA*dA*dG*dT*kT*kG*kG; antisense) [compound 798812] | 0 |
| 830026 (antisense kT*kT*kT*dT*dG*dT*dA*dA*dA*dT*d[5mC]*dG*dA*kA*kA*kG) [compound 830026] | 0 |
| 799374 (antisense kT*kT*kG*d[5mC]*dA*d[5mC]*d[5mC]*dT*dT*dT*dT*dT*dA*kA*kA*k[5mC]) [compound 799374] | 30 |
| 799255 (antisense k[5mC]*kA*kA*dA*dA*d[5mC]*dT*d[5mC]*d[5mC]*dA*dA*dA*dG*kG*kT*kG) [compound 799255] | 0 |
| 798771 (k[5mC]*k[5mC]*kG*dA*dG*dG*dA*dA*dT*dG*d[5mC]*d[5mC]*dT*kG*kA*kG; antisense) [compound 798771] | 62 |

Same assay, conditions: Hep3B cells, electroporation with 10,000 nM antisense oligonucleotide, approximately 24 hours, primer probe set RTS5062, relative to untreated control cells

| Substance | % inhibition of SMAD7 mRNA expression [%] | % Inhibition [%] |
| --- | --- | --- |
| 799069 (antisense kA*kT*kA*dA*dG*dA*d[5mC]*dA*dA*dG*dG*dA*dT*kG*kA*kA) [compound 799069] | 18 |  |
| 799397 (antisense kA*kA*kA*dA*d[5mC]*dA*dG*dA*dG*d[5mC]*dT*dT*dG*kG*kT*kA) [compound 799397] | 27 |  |
| 798940 (antisense kA*kA*kA*dA*d[5mC]*dG*dA*d[5mC]*d[5mC]*dA*dA*dA*dG*kA*kG*kT) [compound 798940] |  | 29 |
| 799199 (antisense kG*kG*kA*dG*dT*d[5mC]*d[5mC]*dT*dT*dT*d[5mC]*dT*d[5mC]*kT*k[5mC]*kT) [compound 799199] | 24 |  |
| 799478 (antisense k[5mC]*k[5mC]*k[5mC]*dT*dA*d[5mC]*d[5mC]*dA*d[5mC]*d[5mC]*d[5mC]*d[5mC]*dT*kG*kT*kG) [compound 799478] | 17 |  |
| 799050 (antisense kA*k[5mC]*kA*dG*dG*d[5mC]*d[5mC]*d[5mC]*dG*dT*dG*dT*d[5mC]*k[5mC]*kT*kT) [compound 799050] | 36 |  |
| 799200 (antisense kT*k[5mC]*kA*dG*dG*dA*dG*dT*d[5mC]*d[5mC]*dT*dT*dT*k[5mC]*kT*k[5mC]) [compound 799200] | 69 |  |
| 798761 (kG*kA*k[5mC]*dG*dA*dG*dG*dG*d[5mC]*dG*dG*d[5mC]*dT*kG*k[5mC]*kG; antisense) [compound 798761] | 39 |  |
| 798935 (antisense kA*kA*kA*dG*d[5mC]*dA*dA*dG*d[5mC]*dA*d[5mC]*dT*d[5mC]*kA*kG*kG) [compound 798935] |  | 48 |
| 799347 (kA*kA*kG*dG*dA*dG*dT*dT*dT*d[5mC]*dA*dG*dG*kG*kT*k[5mC]; antisense) [compound 799347] | 59 |  |
| 798999 (antisense k[5mC]*k[5mC]*kG*d[5mC]*dA*d[5mC]*dA*d[5mC]*dT*d[5mC]*dA*d[5mC]*dA*k[5mC]*kT*k[5mC]) [compound 798999] |  | 17 |
| 799046 (antisense kG*kG*k[5mC]*dT*dT*dT*d[5mC]*d[5mC]*d[5mC]*dA*dG*dG*d[5mC]*kT*kG*kG) [compound 799046] | 0 |  |
| 799029 (kG*kG*kA*dG*dA*dG*dA*d[5mC]*dA*d[5mC]*d[5mC]*dG*d[5mC]*kT*kT*kG; antisense) [compound 799029] | 0 |  |

Same assay, conditions: Hep3B cells, electroporation, 10,000 nM antisense oligonucleotide, approximately 24 hours, RTS5062, relative to untreated control cells

| Substance | % inhibition of SMAD7 mRNA expression [%] |
| --- | --- |
| 799717 (antisense kG*k[5mC]*kA*dG*dG*d[5mC]*dT*dA*d[5mC]*d[5mC]*dA*dG*d[5mC]*k[5mC]*kT*kT) [compound 799717] | 0 |
| 790719 (kG*kG*kA*d[5mC]*dA*dG*dT*d[5mC]*dT*dG*d[5mC]*dT*dG*kT*kG*kG; antisense) [compound 790719] | 86 |
| 799303 (antisense kG*kA*k[5mC]*dA*dA*dA*d[5mC]*d[5mC]*dA*d[5mC]*dA*d[5mC]*dA*kT*kT*k[5mC]) [compound 799303] | 73 |
| 799320 (antisense kG*kT*k[5mC]*dT*dG*d[5mC]*dT*dG*dT*dG*dG*dA*dT*kT*kT*kG) [compound 799320] | 0 |

Same assay, conditions: Hep3B cells, electroporation, 10,000 nM, approximately 24 hours; 3-10-3 cEt gapmers targeting SEQ ID NO: 3 and 4

| Substance | % inhibition of SMAD7 mRNA expression [%] |
| --- | --- |
| 799268 (antisense kT*k[5mC]*k[5mC]*dA*dG*dT*dT*d[5mC]*dG*dG*d[5mC]*d[5mC]*dT*kT*k[5mC]*k[5mC]) [compound 799268] | 24 |

Same assay, conditions: SMAD7 mRNA, Hep3B cells, 10,000 nM antisense oligonucleotide, electroporation, approximately 24 hours, primer probe set RTS5062, relative to untreated control cells

| Substance | % Inhibition [%] |
| --- | --- |
| 829725 (antisense k[5mC]*k[5mC]*kG*dT*dG*dG*d[5mC]*dA*dT*dG*d[5mC]*dG*d[5mC]*k[5mC]*kA*kG) [compound 829725] | 41 |
| 790697 (kA*kT*kT*d[5mC]*dA*dG*dG*dG*dT*dG*dT*d[5mC]*dA*kG*k[5mC]*k[5mC]; antisense) [compound 790697] | 59 |
| 829745 (antisense k[5mC]*kG*kG*dG*d[5mC]*dG*d[5mC]*dA*d[5mC]*dG*dG*d[5mC]*dT*k[5mC]*k[5mC]*kT) [compound 829745] | 19 |
| 800786 (antisense kG*k[5mC]*kA*d[5mC]*d[5mC]*dA*dG*dT*dG*dT*dG*dA*d[5mC]*k[5mC]*kG*kA) [compound 800786] | 0 |
| 829787 (antisense kG*kG*kA*dA*dT*dG*d[5mC]*d[5mC]*dT*dG*dA*dG*dA*kT*k[5mC]*k[5mC]) [compound 829787] | 30 |

Same assay, conditions: SMAD7 mRNA, Hep3B cells, electroporation with 10,000 nM antisense oligonucleotide, approximately 24 hours, primer probe set RTS5062, relative to untreated control cells

| Substance | % Inhibition [%] |
| --- | --- |
| 829963 (k[5mC]*k[5mC]*kT*dA*dG*dT*dT*d[5mC]*dG*d[5mC]*dA*dG*dA*kG*kT*k[5mC]; antisense) [compound 829963] | 46 |
| 829955 (k[5mC]*kT*kT*dG*dT*d[5mC]*dA*d[5mC]*d[5mC]*d[5mC]*dG*dT*d[5mC]*kT*kG*kG; antisense) [compound 829955] | 52 |
| 829877 (antisense kT*k[5mC]*k[5mC]*dG*dG*dG*dT*dT*dG*dT*d[5mC]*d[5mC]*dA*kG*kT*kG) [compound 829877] | 42 |
| 829900 (antisense k[5mC]*kA*k[5mC]*dG*dG*dG*d[5mC]*dA*dG*d[5mC]*dT*dG*d[5mC]*kT*kG*kA) [compound 829900] | 0 |
| 829854 (antisense kG*k[5mC]*kT*dG*dA*d[5mC]*dT*d[5mC]*dT*dT*dG*dT*dT*kG*kT*k[5mC]) [compound 829854] | 25 |
| 829902 (antisense k[5mC]*kA*kG*d[5mC]*dA*d[5mC]*dG*dG*dG*d[5mC]*dA*dG*d[5mC]*kT*kG*k[5mC]) [compound 829902] | 0 |
| 829910 (antisense kG*kA*kG*dT*dT*dT*dG*d[5mC]*dA*dT*dG*dA*dA*kA*kA*kG) [compound 829910] | 49 |
